Measured values from the kinase profiling compilation of Christmann-Franck et al. (2016).

What was measured:
Test in all cases: radiometric filter-binding kinase assay, Kinase HotSpot
Settings in all cases: compound 0.5 µM; ATP 10 µM
ALK (human) = ALK (human) (UniProt Q9UM73)
FLT1 (human) = FLT1 (human) (UniProt P17948)
MUSK (human) = MUSK (human) (UniProt O15146)
CDK2 CCNA2 (human) = CDK2 CCNA2 (human) (UniProt P24941+P20248)
GRK7 (human) = GRK7 (human) (UniProt Q8WTQ7)
CSNK2A2 (human) = CSNK2A2 (human) (UniProt P19784)
PDGFRB (human) = PDGFRB (human) (UniProt P09619)
JAK2 JH1 JH2 (human) = JAK2 JH1 JH2 (human) (UniProt O60674)
PRKACG (human) = PRKACG (human) (UniProt P22612)
[1] = tested on: ARAF (human), P10398 [Y301D/Y302D]
MAPK8 (human) = MAPK8 (human) (UniProt P45983)
MATK (human) = MATK (human) (UniProt P42679)
DMPK (human) = DMPK (human) (UniProt Q09013)
CAMKK2 (human) = CAMKK2 (human) (UniProt Q96RR4)
MAP3K2 (human) = MAP3K2 (human) (UniProt Q9Y2U5)
MYO3B (human) = MYO3B (human) (UniProt Q8WXR4)
EPHA8 (human) = EPHA8 (human) (UniProt P29322)
TLK2 (human) = TLK2 (human) (UniProt Q86UE8)
EPHB1 (human) = EPHB1 (human) (UniProt P54762)
EPHA6 (human) = EPHA6 (human) (UniProt Q9UF33)
STK16 (human) = STK16 (human) (UniProt O75716)
PKN2 (human) = PKN2 (human) (UniProt Q16513)
ABL1 (human) = ABL1 (human) (UniProt P00519)
SLK (human) = SLK (human) (UniProt Q9H2G2)
IRAK4 (human) = IRAK4 (human) (UniProt Q9NWZ3)
STK38 (human) = STK38 (human) (UniProt Q15208)
BRAF (human) = BRAF (human) (UniProt P15056)
CSNK1D (human) = CSNK1D (human) (UniProt P48730)
PKN1 (human) = PKN1 (human) (UniProt Q16512)
AURKB (human) = AURKB (human) (UniProt Q96GD4)
LCK (human) = LCK (human) (UniProt P06239)
HIPK3 (human) = HIPK3 (human) (UniProt Q9H422)
MELK (human) = MELK (human) (UniProt Q14680)
MAP3K8 (human) = MAP3K8 (human) (UniProt P41279)
ULK3 (human) = ULK3 (human) (UniProt Q6PHR2)
MARK3 (human) = MARK3 (human) (UniProt P27448)
CSNK1G3 (human) = CSNK1G3 (human) (UniProt Q9Y6M4)
CAMK1G (human) = CAMK1G (human) (UniProt Q96NX5)
YES1 (human) = YES1 (human) (UniProt P07947)
MAP3K7 TAB1 (human) = MAP3K7 TAB1 (human) (UniProt O43318+Q15750)
EGFR (human) = EGFR (human) (UniProt P00533)

Sequence of MAP3K7 TAB1 (human) (O43318 whole entry, looked up): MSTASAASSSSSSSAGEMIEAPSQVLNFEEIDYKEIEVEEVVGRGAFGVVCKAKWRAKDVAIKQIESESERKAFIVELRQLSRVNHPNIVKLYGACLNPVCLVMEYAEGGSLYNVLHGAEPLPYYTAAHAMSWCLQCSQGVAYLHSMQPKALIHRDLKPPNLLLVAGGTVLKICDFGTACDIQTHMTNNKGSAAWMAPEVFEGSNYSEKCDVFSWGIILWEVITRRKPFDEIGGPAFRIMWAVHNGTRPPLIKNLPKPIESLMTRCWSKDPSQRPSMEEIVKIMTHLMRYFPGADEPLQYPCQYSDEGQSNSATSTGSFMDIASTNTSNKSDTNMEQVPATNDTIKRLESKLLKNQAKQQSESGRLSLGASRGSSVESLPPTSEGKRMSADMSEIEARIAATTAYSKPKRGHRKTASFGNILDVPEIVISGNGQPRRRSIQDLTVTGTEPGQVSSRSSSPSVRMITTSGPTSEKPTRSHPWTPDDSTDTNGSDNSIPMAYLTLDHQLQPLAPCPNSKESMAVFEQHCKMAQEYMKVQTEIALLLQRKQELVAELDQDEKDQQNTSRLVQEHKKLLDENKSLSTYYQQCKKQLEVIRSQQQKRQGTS
Sequence of MAP3K7 TAB1 (human) (Q15750 whole entry, looked up): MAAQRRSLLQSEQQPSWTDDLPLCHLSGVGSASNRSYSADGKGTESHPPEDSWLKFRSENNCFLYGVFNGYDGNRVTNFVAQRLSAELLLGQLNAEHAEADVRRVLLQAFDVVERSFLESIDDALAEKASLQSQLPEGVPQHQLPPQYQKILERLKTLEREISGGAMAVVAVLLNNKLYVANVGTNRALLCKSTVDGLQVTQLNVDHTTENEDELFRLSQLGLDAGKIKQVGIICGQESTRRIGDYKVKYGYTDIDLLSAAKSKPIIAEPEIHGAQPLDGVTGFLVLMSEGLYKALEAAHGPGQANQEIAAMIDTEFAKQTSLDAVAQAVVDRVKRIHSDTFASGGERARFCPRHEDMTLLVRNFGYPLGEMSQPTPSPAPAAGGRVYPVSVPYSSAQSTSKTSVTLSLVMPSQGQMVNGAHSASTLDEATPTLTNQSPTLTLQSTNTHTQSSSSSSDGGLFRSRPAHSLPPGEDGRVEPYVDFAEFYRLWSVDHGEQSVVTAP
Sequence of MAP3K2 (human) (Q9Y2U5 whole entry, looked up): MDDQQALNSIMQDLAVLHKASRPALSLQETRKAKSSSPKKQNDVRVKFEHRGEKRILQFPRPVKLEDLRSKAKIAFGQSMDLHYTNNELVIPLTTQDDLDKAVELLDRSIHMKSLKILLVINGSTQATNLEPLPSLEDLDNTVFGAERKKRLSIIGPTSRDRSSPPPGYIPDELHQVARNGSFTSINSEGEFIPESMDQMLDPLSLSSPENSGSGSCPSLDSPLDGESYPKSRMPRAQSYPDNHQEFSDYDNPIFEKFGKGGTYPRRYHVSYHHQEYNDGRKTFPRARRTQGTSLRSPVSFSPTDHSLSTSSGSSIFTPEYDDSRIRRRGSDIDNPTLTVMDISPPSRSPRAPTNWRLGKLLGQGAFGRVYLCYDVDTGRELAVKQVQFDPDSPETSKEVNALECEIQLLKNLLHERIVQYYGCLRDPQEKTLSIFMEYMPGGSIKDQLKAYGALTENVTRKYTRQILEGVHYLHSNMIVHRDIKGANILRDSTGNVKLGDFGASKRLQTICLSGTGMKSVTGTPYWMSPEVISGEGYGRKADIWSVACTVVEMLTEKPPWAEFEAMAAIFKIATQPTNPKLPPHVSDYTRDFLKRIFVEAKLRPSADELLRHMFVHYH
Sequence of CSNK1D (human) (P48730 whole entry, looked up): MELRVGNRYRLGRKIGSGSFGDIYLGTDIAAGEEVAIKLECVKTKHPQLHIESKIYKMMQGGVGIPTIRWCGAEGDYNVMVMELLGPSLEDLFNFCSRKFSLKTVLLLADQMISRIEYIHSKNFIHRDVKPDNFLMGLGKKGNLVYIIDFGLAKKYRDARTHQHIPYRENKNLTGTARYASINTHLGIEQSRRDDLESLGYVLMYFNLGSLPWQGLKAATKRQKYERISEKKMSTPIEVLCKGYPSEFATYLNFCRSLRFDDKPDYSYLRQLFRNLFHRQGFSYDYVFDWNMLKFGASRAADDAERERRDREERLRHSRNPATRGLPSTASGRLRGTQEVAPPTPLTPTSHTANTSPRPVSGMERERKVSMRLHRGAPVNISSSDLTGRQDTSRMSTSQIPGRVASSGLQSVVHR
Sequence of EPHA6 (human) (Q9UF33 whole entry, looked up): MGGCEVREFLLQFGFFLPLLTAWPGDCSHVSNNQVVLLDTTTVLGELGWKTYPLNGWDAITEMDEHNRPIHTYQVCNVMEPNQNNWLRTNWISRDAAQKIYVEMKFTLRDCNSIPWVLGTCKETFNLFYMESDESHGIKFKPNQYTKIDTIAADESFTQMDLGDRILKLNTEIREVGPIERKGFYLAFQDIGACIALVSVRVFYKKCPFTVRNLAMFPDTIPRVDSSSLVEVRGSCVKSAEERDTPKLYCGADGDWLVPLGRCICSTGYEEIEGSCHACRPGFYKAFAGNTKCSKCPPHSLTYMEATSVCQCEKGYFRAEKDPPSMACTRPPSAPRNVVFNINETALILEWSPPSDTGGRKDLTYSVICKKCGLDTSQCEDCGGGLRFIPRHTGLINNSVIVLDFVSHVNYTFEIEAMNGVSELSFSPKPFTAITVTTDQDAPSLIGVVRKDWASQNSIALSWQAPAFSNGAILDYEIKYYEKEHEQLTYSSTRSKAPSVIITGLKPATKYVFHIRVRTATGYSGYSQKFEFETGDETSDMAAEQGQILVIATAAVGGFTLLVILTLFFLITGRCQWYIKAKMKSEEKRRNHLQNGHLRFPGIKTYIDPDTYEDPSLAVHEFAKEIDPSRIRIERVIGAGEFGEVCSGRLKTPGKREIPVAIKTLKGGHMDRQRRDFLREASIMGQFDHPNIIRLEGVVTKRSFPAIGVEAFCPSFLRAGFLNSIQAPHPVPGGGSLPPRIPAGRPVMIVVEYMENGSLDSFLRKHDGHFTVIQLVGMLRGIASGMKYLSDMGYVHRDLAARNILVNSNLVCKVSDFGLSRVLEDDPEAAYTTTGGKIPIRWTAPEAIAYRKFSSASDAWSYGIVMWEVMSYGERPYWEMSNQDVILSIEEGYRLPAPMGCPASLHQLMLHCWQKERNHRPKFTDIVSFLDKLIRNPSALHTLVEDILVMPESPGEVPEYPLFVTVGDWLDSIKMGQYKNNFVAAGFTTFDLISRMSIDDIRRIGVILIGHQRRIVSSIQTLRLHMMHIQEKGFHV
Sequence of HIPK3 (human) (Q9H422 whole entry, looked up): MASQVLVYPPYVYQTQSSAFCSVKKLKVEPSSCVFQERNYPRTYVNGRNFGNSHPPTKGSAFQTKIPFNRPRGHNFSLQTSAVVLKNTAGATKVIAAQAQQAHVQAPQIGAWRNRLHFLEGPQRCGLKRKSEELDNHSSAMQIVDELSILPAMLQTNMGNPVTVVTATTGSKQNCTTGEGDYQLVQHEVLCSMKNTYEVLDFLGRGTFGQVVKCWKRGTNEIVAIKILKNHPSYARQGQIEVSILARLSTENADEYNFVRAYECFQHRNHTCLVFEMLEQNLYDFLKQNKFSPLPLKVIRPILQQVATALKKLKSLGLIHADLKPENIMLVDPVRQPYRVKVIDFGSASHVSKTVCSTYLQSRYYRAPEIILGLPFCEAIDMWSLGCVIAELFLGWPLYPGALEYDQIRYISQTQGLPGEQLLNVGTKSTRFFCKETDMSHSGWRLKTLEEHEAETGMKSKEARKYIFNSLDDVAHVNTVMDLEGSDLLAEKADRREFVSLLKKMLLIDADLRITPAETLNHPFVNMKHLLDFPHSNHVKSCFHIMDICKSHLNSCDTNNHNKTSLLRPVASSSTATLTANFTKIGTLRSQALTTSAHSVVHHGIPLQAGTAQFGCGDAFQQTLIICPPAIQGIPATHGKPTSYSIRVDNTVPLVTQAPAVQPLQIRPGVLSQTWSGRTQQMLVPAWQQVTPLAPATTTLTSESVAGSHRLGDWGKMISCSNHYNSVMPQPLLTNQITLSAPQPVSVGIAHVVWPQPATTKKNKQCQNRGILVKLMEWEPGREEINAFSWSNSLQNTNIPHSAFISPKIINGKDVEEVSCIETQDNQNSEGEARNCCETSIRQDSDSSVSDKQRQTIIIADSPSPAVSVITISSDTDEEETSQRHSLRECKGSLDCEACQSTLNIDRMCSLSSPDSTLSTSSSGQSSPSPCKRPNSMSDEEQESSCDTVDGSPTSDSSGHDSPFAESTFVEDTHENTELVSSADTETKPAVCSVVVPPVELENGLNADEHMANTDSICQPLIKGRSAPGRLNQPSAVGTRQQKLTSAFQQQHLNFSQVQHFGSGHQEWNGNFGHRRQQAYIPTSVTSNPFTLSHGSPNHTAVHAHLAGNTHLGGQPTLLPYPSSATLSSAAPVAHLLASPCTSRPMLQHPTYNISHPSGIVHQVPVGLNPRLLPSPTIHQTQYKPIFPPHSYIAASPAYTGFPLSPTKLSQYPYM
Sequence of LCK (human) (P06239 whole entry, looked up): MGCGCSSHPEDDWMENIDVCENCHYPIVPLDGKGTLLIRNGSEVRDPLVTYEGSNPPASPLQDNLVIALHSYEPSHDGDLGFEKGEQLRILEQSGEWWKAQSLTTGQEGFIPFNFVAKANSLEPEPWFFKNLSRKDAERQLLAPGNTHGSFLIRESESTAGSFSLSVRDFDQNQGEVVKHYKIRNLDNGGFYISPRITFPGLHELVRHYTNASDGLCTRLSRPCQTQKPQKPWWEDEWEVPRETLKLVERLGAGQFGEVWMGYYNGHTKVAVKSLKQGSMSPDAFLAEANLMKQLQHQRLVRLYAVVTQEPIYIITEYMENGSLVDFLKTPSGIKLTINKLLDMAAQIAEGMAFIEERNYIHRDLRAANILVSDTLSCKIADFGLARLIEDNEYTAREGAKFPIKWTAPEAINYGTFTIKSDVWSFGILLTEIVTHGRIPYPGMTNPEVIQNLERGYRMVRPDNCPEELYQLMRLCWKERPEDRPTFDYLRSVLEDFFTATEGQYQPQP

SMILES	residual activity (ALK (human)) [%]	residual activity (MUSK (human)) [%]	residual activity (CDK2 CCNA2 (human)) [%]	residual activity (GRK7 (human)) [%]	residual activity (JAK2 JH1 JH2 (human)) [%]	residual activity (PRKACG (human)) [%]	residual activity (MAPK8 (human)) [%]	residual activity (MATK (human)) [%]	residual activity (DMPK (human)) [%]	residual activity (CAMKK2 (human)) [%]	residual activity (MAP3K2 (human)) [%]	residual activity (MYO3B (human)) [%]	residual activity (EPHA8 (human)) [%]	residual activity (TLK2 (human)) [%]	residual activity (EPHB1 (human)) [%]	residual activity (EPHA6 (human)) [%]	residual activity (STK16 (human)) [%]	residual activity (ABL1 (human)) [%]	residual activity (SLK (human)) [%]	residual activity (IRAK4 (human)) [%]	further results
O=C(Nc1ccc(Cl)cc1)c1ccccc1NCc1ccncc1	103	95.9	92.2	96.2	96.5	87.4	109	99.3	103	93.9	92.8	82	87.6	97.3	90.2	89.8	94.1	99.7	86.6	104	residual activity (FLT1 (human)): 24.8%; residual activity (CSNK2A2 (human)): 98.3%; residual activity (PDGFRB (human)): 45%; residual activity [1]: 91.4%; residual activity (PKN2 (human)): 93.2%; residual activity (STK38 (human)): 97.5%; residual activity (BRAF (human)): 90%; residual activity (CSNK1D (human)): 98.1%; residual activity (PKN1 (human)): 95.2%; residual activity (AURKB (human)): 77.7%; residual activity (LCK (human)): 93.3%; residual activity (HIPK3 (human)): 98.7%; residual activity (MELK (human)): 92.3%; residual activity (MAP3K8 (human)): 105%; residual activity (ULK3 (human)): 84.7%; residual activity (MARK3 (human)): 93.1%; residual activity (CSNK1G3 (human)): 105%; residual activity (CAMK1G (human)): 101%; residual activity (YES1 (human)): 95.3%; residual activity (MAP3K7 TAB1 (human)): 98.1%
CC(C)[C@H](CO)Nc1nc(Nc2cccc(Cl)c2)c2ncn(C(C)C)c2n1	100	56.8	6.91	88.8	97.7	113	99	93.1	108	70.9	97.8	94.2	102	94.7	83.5	93.8	102	75.6	73.1	88.6	residual activity (FLT1 (human)): 102%; residual activity (CSNK2A2 (human)): 93.2%; residual activity (PDGFRB (human)): 106%; residual activity [1]: 96.5%; residual activity (EGFR (human)): 94.2%; residual activity (STK38 (human)): 90.5%; residual activity (BRAF (human)): 92.7%; residual activity (CSNK1D (human)): 92.2%; residual activity (PKN1 (human)): 100%; residual activity (AURKB (human)): 97%; residual activity (LCK (human)): 86.9%; residual activity (HIPK3 (human)): 102%; residual activity (MELK (human)): 69.5%; residual activity (MAP3K8 (human)): 101%; residual activity (ULK3 (human)): 59.6%; residual activity (MARK3 (human)): 96.6%; residual activity (CSNK1G3 (human)): 17.3%; residual activity (CAMK1G (human)): 94.9%; residual activity (YES1 (human)): 21.2%; residual activity (MAP3K7 TAB1 (human)): 71.1%
COc1ccc(-c2cnc3c(-c4ccsc4)cnn3c2)cc1	80.4	74.9	83	99.9	98.4	93.9	100	99.4	100	72.9	98.7	84	90.3	96.2	83.1	85.1	66.9	72.9	86.3	82.1	residual activity (FLT1 (human)): 75.7%; residual activity (CSNK2A2 (human)): 87.3%; residual activity (PDGFRB (human)): 63.4%; residual activity (EGFR (human)): 92.3%; residual activity (PKN2 (human)): 107%; residual activity (STK38 (human)): 102%; residual activity (BRAF (human)): 85.9%; residual activity (CSNK1D (human)): 83.6%; residual activity (PKN1 (human)): 93.1%; residual activity (AURKB (human)): 50.8%; residual activity (LCK (human)): 81.6%; residual activity (HIPK3 (human)): 103%; residual activity (MELK (human)): 73.6%; residual activity (MAP3K8 (human)): 105%; residual activity (ULK3 (human)): 79.4%; residual activity (MARK3 (human)): 88.8%; residual activity (CSNK1G3 (human)): 102%; residual activity (CAMK1G (human)): 100%; residual activity (YES1 (human)): 67.7%; residual activity (MAP3K7 TAB1 (human)): 97.6%
Clc1ccc(Nc2nnc(Cc3ccncc3)c3ccccc23)cc1	102	105	87.7	92.2	106	116	98.2	78.1	102	100	126	102	100	102	107	101	93.5	96.5	94.2	85.1	residual activity (CSNK2A2 (human)): 106%; residual activity [1]: 97.6%; residual activity (PKN2 (human)): 99.9%; residual activity (STK38 (human)): 100%; residual activity (BRAF (human)): 92.2%; residual activity (CSNK1D (human)): 92.2%; residual activity (PKN1 (human)): 95.9%; residual activity (AURKB (human)): 90%; residual activity (LCK (human)): 87%; residual activity (HIPK3 (human)): 96.5%; residual activity (MELK (human)): 83.7%; residual activity (MAP3K8 (human)): 98.2%; residual activity (ULK3 (human)): 101%; residual activity (MARK3 (human)): 102%; residual activity (CSNK1G3 (human)): 100%; residual activity (CAMK1G (human)): 107%; residual activity (YES1 (human)): 93%; residual activity (MAP3K7 TAB1 (human)): 99.6%
CS(=O)c1ccc(-c2nc(-c3ccc(F)cc3)c(-c3ccncc3)[nH]2)cc1 (stereo unspecified)	105	90.3	101	107	99.5	107	96.1	95.6	103	110	95.3	104	101	96.5	93	57.2	111	97	94.1	130	residual activity (FLT1 (human)): 95.2%; residual activity (PDGFRB (human)): 103%; residual activity [1]: 42.7%; residual activity (STK38 (human)): 105%; residual activity (BRAF (human)): 78.8%; residual activity (CSNK1D (human)): 13.9%; residual activity (PKN1 (human)): 96.5%; residual activity (AURKB (human)): 87.7%; residual activity (LCK (human)): 95%; residual activity (HIPK3 (human)): 103%; residual activity (MELK (human)): 102%; residual activity (MAP3K8 (human)): 92.1%; residual activity (ULK3 (human)): 83.2%; residual activity (MARK3 (human)): 101%; residual activity (CSNK1G3 (human)): 103%; residual activity (CAMK1G (human)): 99.3%; residual activity (YES1 (human)): 92.6%; residual activity (MAP3K7 TAB1 (human)): 94%
